Source: ChEMBL document CHEMBL1201862, “PubChem BioAssay data set” (2004)
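In this assay, cells in 96-well plates receive the compound at five concentrations for 48 hours. Endpoints are linearly interpolated between the surrounding concentrations. GI50: concentration for 50% inhibition of growth.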 Calls of active or inactive are those of the source. Rule as the data show it: active = GI50 up to about 1.1 µM and inactive = higher.

How the values were obtained:
Experiment in all cases: DTP human tumour cell line panel, 48 h
[1] = test system: 786-0
[2] = test system: A498
[3] = test system: A549
[4] = test system: ACHN
[5] = test system: BT-549
[6] = test system: CAKI-1
[7] = test system: CCRF-CEM
[8] = test system: COLO 205
[9] = test system: DU-145
[10] = test system: EKVX
[11] = test system: HCC 2998
[12] = test system: HCT-116
[13] = test system: HCT-15
[14] = test system: HOP-62
[15] = test system: HOP-92
[16] = test system: HT-29
[17] = test system: IGROV-1
[18] = test system: K562
[19] = test system: KM12
[20] = test system: LOX IMVI
[21] = test system: M14
[22] = test system: MCF7
[23] = test system: MDA-MB-231
[24] = test system: MDA-MB-435
[25] = test system: MDA-N
[26] = test system: MOLT-4
[27] = test system: Malme-3M
[28] = test system: NCI-H226
[29] = test system: NCI-H23
[30] = test system: NCI-H460
[31] = test system: NCI-H522
[32] = test system: NCI/ADR-RES
[33] = test system: OVCAR-3
[34] = test system: OVCAR-4
[35] = test system: OVCAR-5
[36] = test system: OVCAR-8
[37] = test system: PC-3
[38] = test system: RPMI-8226
[39] = test system: RXF 393
[40] = test system: SF-268
[41] = test system: SF-295
[42] = test system: SK-MEL-28
[43] = test system: SK-MEL-2
[44] = test system: SK-MEL-5
[45] = test system: SK-OV-3
[46] = test system: SN12C
[47] = test system: SNB-19
[48] = test system: SNB-75
[49] = test system: SR
[50] = test system: SW-620
[51] = test system: T47D
[52] = test system: TK-10
[53] = test system: U-251
[54] = test system: UACC-257
[55] = test system: UO-31
[56] = test system: UACC-62

CC(C)(C)OC/C=C1\C(=O)O[C@H]2C[C@@H](O[Si](C)(C)C(C)(C)C)C[C@@H]12
GI50 [1]: > 100 µM (inactive)
GI50 [2]: > 100 µM (inactive)
GI50 [3]: 69.2 µM (inactive)
GI50 [4]: > 100 µM (inactive)
GI50 [5]: > 100 µM (inactive)
GI50 [6]: > 100 µM (inactive)
GI50 [7]: 33.9 µM (inactive)
GI50 [8]: > 100 µM (inactive)
GI50 [9]: > 100 µM (inactive)
GI50 [10]: > 100 µM (inactive)
GI50 [11]: > 100 µM (inactive)
GI50 [12]: 26.4 µM (inactive)
GI50 [13]: > 100 µM
GI50 [14]: 85.3 µM (inactive)
GI50 [15]: 36.4 µM (inactive)
GI50 [16]: 73.6 µM (inactive)
GI50 [17]: > 100 µM (inactive)
GI50 [18]: 26.1 µM (inactive)
GI50 [19]: 67.9 µM (inactive)
GI50 [20]: 98.2 µM (inactive)
GI50 [21]: 61.8 µM (inactive)
GI50 [22]: 35.4 µM (inactive)
GI50 [23]: > 100 µM (inactive)
GI50 [24]: 96.2 µM (inactive)
GI50 [25]: 90.4 µM (inactive)
GI50 [26]: 25.1 µM (inactive)
GI50 [27]: > 100 µM (inactive)
GI50 [28]: > 100 µM (inactive)
GI50 [29]: 52.4 µM (inactive)
GI50 [30]: > 100 µM (inactive)
GI50 [31]: 33.5 µM (inactive)
GI50 [32]: 88.1 µM (inactive)
GI50 [33]: 49.9 µM (inactive)
GI50 [34]: 92.3 µM (inactive)
GI50 [35]: > 100 µM (inactive)
GI50 [36]: 81.1 µM (inactive)
GI50 [37]: 66.5 µM (inactive)
GI50 [38]: 46 µM (inactive)
GI50 [39]: 32.2 µM (inactive)
GI50 [40]: > 100 µM (inactive)
GI50 [41]: 48.6 µM (inactive)
GI50 [42]: > 100 µM (inactive)
GI50 [43]: > 100 µM (inactive)
GI50 [44]: > 100 µM (inactive)
GI50 [45]: > 100 µM (inactive)
GI50 [46]: > 100 µM (inactive)
GI50 [47]: > 100 µM (inactive)
GI50 [48]: 63.7 µM (inactive)
GI50 [49]: 37.3 µM (inactive)
GI50 [50]: > 100 µM (inactive)
GI50 [51]: 27.9 µM (inactive)
GI50 [52]: > 100 µM (inactive)
GI50 [53]: 83 µM (inactive)
GI50 [54]: 62.4 µM (inactive)
GI50 [55]: 53.8 µM (inactive)

O=C1Nc2ccc(Cl)cc2C(=O)N2CCC[C@@H]12
GI50 [1]: > 100 µM (inactive)
GI50 [2]: > 100 µM (inactive)
GI50 [3]: > 100 µM (inactive)
GI50 [4]: > 100 µM (inactive)
GI50 [5]: > 100 µM (inactive)
GI50 [6]: > 100 µM (inactive)
GI50 [8]: > 100 µM (inactive)
GI50 [9]: > 100 µM (inactive)
GI50 [10]: > 100 µM (inactive)
GI50 [11]: > 100 µM (inactive)
GI50 [12]: > 100 µM (inactive)
GI50 [13]: > 100 µM
GI50 [14]: > 100 µM (inactive)
GI50 [15]: > 100 µM (inactive)
GI50 [16]: > 100 µM (inactive)
GI50 [17]: > 100 µM (inactive)
GI50 [18]: > 100 µM (inactive)
GI50 [19]: > 100 µM (inactive)
GI50 [20]: > 100 µM (inactive)
GI50 [21]: > 100 µM (inactive)
GI50 [22]: > 100 µM (inactive)
GI50 [23]: > 100 µM (inactive)
GI50 [24]: > 100 µM (inactive)
GI50 [25]: > 100 µM (inactive)
GI50 [26]: > 100 µM (inactive)
GI50 [27]: > 100 µM (inactive)
GI50 [28]: > 100 µM (inactive)
GI50 [29]: > 100 µM (inactive)
GI50 [30]: > 100 µM (inactive)
GI50 [31]: > 100 µM (inactive)
GI50 [32]: > 100 µM (inactive)
GI50 [33]: > 100 µM (inactive)
GI50 [34]: > 100 µM (inactive)
GI50 [35]: > 100 µM (inactive)
GI50 [36]: > 100 µM (inactive)
GI50 [37]: > 100 µM (inactive)
GI50 [38]: > 100 µM (inactive)
GI50 [39]: 60.3 µM (inactive)
GI50 [40]: > 100 µM (inactive)
GI50 [41]: > 100 µM (inactive)
GI50 [42]: > 100 µM (inactive)
GI50 [43]: > 100 µM (inactive)
GI50 [44]: > 100 µM (inactive)
GI50 [45]: > 100 µM (inactive)
GI50 [46]: > 100 µM (inactive)
GI50 [47]: > 100 µM (inactive)
GI50 [48]: > 100 µM (inactive)
GI50 [49]: > 100 µM (inactive)
GI50 [50]: > 100 µM (inactive)
GI50 [51]: > 100 µM (inactive)
GI50 [52]: > 100 µM (inactive)
GI50 [53]: > 100 µM (inactive)
GI50 [54]: > 100 µM (inactive)
GI50 [56]: > 100 µM (inactive)
GI50 [55]: > 100 µM (inactive)
